Laboratory results from the supplement of paper PMC10307832.

Legend:
Test in all cases: relative viability (nuclei count vs DMSO), 5 days (fraction); higher = more cells survive
[1] = compound: COc1cc2c(Oc3ccc4[nH]c(C)cc4c3F)ncnc2cc1OCCCN1CCCC1 [Cediranib] + N=C(N)NC(=N)NCCc1ccccc1 [Phenformin] (partner 250 µM)
Summary of the method: (§1)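 Lung cancer cell lines in 1536-well plates got either a single drug or a fixed anchor-drug dose together with five library-drug doses (not always all listed) in √10 steps, by pin tool, on the day after seeding. Nuclei were counted after 5 days, and relative viability is the treated-to-vehicle ratio of nuclei counts. Values are medians of duplicate plates.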

[2] = compound: Nc1ncn([C@H]2C[C@H](O)[C@@H](CO)O2)c(=O)n1 [Decitabine] + N=C(N)NC(=N)NCCc1ccccc1 [Phenformin] (partner 250 µM)
Summary of the method: as §1

[3] = compound: COc1cc2c(Oc3ccc4[nH]c(C)cc4c3F)ncnc2cc1OCCCN1CCCC1 [Cediranib] + CC1(C)CCC(c2ccc(Cl)cc2)=C(CN2CCN(c3ccc(C(=O)NS(=O)(=O)c4ccc(N[C@H](CCN5CCOCC5)CSc5ccccc5)c(S(=O)(=O)C(F)(F)F)c4)cc3)CC2)C1 [Navitoclax] (partner 0.5 µM)
Summary of the method: as §1

[4] = compound: O=C(C[C@H]1NCCC[C@@H]1O)Cn1cnc2cc(Br)c(Cl)cc2c1=O (racemic) [Halofuginone] + Nc1nc2[nH]cc(CCc3ccc(C(=O)N[C@@H](CCC(=O)O)C(=O)O)cc3)c2c(=O)[nH]1 [Pemetrexed] (partner 0.2 µM)
Summary of the method: as §1

Cell Line | relative viability ([1]; first compound 0.04 µM) | relative viability ([1]; first compound 0.1265 µM) | relative viability ([1]; first compound 0.4 µM) | relative viability ([1]; first compound 1.265 µM) | relative viability ([1]; first compound 4 µM) | relative viability ([2]; first compound 0.04 µM) | relative viability ([2]; first compound 0.1265 µM) | relative viability ([2]; first compound 0.4 µM) | relative viability ([2]; first compound 1.265 µM) | relative viability ([2]; first compound 4 µM) | relative viability ([3]; first compound 0.04 µM) | relative viability ([3]; first compound 0.1265 µM) | relative viability ([3]; first compound 0.4 µM) | relative viability ([3]; first compound 1.265 µM) | relative viability ([3]; first compound 4 µM) | relative viability ([4]; first compound 0.001 µM) | relative viability ([4]; first compound 0.003162 µM) | relative viability ([4]; first compound 0.01 µM) | relative viability ([4]; first compound 0.03162 µM) | relative viability ([4]; first compound 0.1 µM)
HCC-366 | 0.536 | 0.594 | 0.614 | 0.738 | 0.663 | 0.505 | 0.528 | 0.392 | 0.244 | 0.155 | 1.07 | 0.983 | 1.11 | 1.07 | 1.07 | 0.157 | 0.167 | 0.156 | 0.135 | 0.12
HCC-827 | 0.412 | – | 0.389 | 0.385 | 0.356 | 0.17 | 0.288 | 0.283 | 0.214 | 0.289 | 1.02 | – | 1.02 | 1.04 | 1.1 | 0.238 | 0.237 | 0.266 | 0.27 | 0.239
HOP-62 | 0.703 | 0.607 | 0.647 | 0.632 | 0.741 | 0.464 | 0.374 | 0.175 | 0.168 | 0.148 | 1.08 | 0.892 | 0.867 | 1.1 | 1.14 | 0.326 | 0.293 | 0.333 | 0.306 | 0.295
IA-LM | – | – | – | – | – | – | – | – | – | – | 0.875 | 0.921 | 0.652 | 0.672 | 1.09 | – | – | – | – | –
LC-2-ad | 0.595 | 0.497 | 0.612 | 0.569 | 0.554 | 0.512 | 0.552 | 0.509 | 0.419 | 0.416 | 0.504 | 0.502 | 0.469 | 0.419 | 0.513 | 0.273 | 0.305 | 0.251 | 0.246 | 0.269
LCLC-97TM1 | 0.501 | 0.288 | 0.421 | 0.49 | 0.449 | 0.304 | 0.308 | 0.312 | 0.293 | 0.124 | 0.316 | – | 0.448 | 0.544 | 0.527 | 0.183 | 0.156 | 0.189 | 0.16 | 0.153
LCLC-103H | 0.319 | 0.39 | 0.298 | 0.344 | 0.352 | 0.319 | 0.36 | 0.293 | 0.328 | 0.315 | – | – | – | – | – | 0.479 | 0.362 | 0.455 | 0.443 | 0.498
LK-2 | 0.38 | 0.175 | 0.35 | 0.418 | 0.29 | 0.376 | 0.522 | 0.375 | 0.295 | 0.244 | 1 | 0.848 | 0.768 | 0.828 | 0.861 | 0.25 | 0.212 | 0.294 | 0.249 | 0.241
LOU-NH91 | 0.688 | 0.986 | 0.696 | 0.625 | 0.673 | 0.442 | 0.724 | 0.732 | 0.588 | 0.659 | 0.673 | 0.635 | 0.665 | 0.706 | 0.544 | 0.405 | 0.391 | 0.425 | 0.4 | 0.403
LU99A | 0.726 | 0.589 | 0.75 | 0.734 | 0.924 | 0.825 | 1 | 0.757 | 0.648 | 0.627 | 0.787 | – | 0.813 | 0.698 | 0.969 | 0.218 | 0.157 | 0.16 | 0.163 | 0.181
NCI-H358 | 0.336 | 0.41 | 0.299 | 0.222 | 0.358 | 0.246 | 0.258 | 0.168 | 0.148 | 0.136 | – | – | – | – | – | 0.171 | 0.167 | 0.167 | 0.154 | 0.138
NCI-H522 | 0.623 | 0.608 | 0.575 | 0.64 | 0.687 | 0.564 | 0.674 | 0.514 | 0.552 | 0.65 | – | – | – | – | – | 1.08 | 0.968 | 1.03 | 1.11 | 0.918
NCI-H650 | 0.497 | 0.388 | 0.475 | 0.476 | 0.437 | 0.432 | 0.408 | 0.321 | 0.346 | 0.291 | – | – | – | – | – | 0.981 | 0.954 | 0.946 | 0.825 | 0.696
NCI-H661 | 0.294 | 0.296 | 0.281 | 0.267 | 0.31 | 0.289 | 0.282 | 0.267 | 0.281 | 0.277 | – | – | – | – | – | 0.927 | 0.896 | 0.868 | 0.768 | 0.642
NCI-H727 | – | – | 0.483 | 0.528 | 0.533 | 0.549 | 0.503 | 0.367 | 0.423 | 0.362 | 0.404 | 0.409 | 0.38 | 0.532 | 0.583 | – | – | – | – | –
NCI-H1299 | – | – | – | – | – | – | – | – | – | – | 1.07 | 1.02 | 1.03 | 1.07 | 1.08 | – | – | – | – | –
NCI-H1563 | 0.63 | 0.851 | 0.676 | 0.651 | 0.665 | 0.631 | 0.75 | 0.764 | 0.658 | 0.74 | – | – | – | – | – | 0.782 | 0.788 | 0.825 | 0.685 | 0.585
NCI-H1623 | 0.587 | – | 0.553 | 0.595 | 0.567 | 0.539 | 0.507 | 0.5 | 0.492 | 0.462 | – | – | – | – | – | – | – | – | – | –
NCI-H1648 | – | – | – | – | – | – | – | – | – | – | – | – | – | – | – | 0.666 | 0.732 | 0.92 | 0.796 | 0.91
NCI-H1703 | – | – | – | – | – | – | – | – | – | – | 1.11 | 0.916 | 0.287 | 0.237 | 0.238 | – | – | – | – | –
NCI-H2342 | 0.563 | 0.825 | 0.635 | 0.466 | 0.58 | 0.597 | 0.732 | 0.511 | 0.514 | 0.535 | – | – | – | – | – | 0.801 | 0.702 | 0.774 | 0.76 | 0.727
SW 900 | 0.658 | 0.604 | 0.698 | 0.496 | 0.645 | 0.319 | 0.32 | 0.269 | 0.19 | 0.219 | – | – | – | – | – | 0.483 | 0.505 | – | 0.432 | 0.445
